Patent US20250170252A1, “QUINONE PROTECTED FORMS AND CONJUGATES” (CAMBRIDGE ENTERPRISE LIMITED, priority 2022, published 2025)

Columns and labels:
Assay type in all cases: cell-based
[1] = system: Panc-1 pancreatic cancer cell line; assay: CellTiter Glo viability assay, Panc-1; conditions: Homo sapiens; Panc-1, β-lapachone alone, 48 hours; read-out: IC50
Experimental: For CellTiter Glo viability assays, 10,000 cells per well were plated on Day 1 and were allowed to adhere to the plate surface for 24 hours. Optimized concentration ranges of prodrugs were determined and made via serial dilution. […] Cells were incubated with compound for 48 hours and viability was assessed on Day 4 using the CellTiter Glo Viability assay which measures metabolically active cells by quantifying the amount of ATP present.
Panc-1 cells were obtained from Tony Kouzarides' lab in the Gurdon Institute at the University of Cambridge and put into culture at passage 10 containing DMEM media (Gibco) supplemented with 1% Pen-Strep antibiotic (Gibco), 1% L-glutamine, and 10% fetal bovine serum (FBS, sterile-filtered). Aspc-1 cells were bought commercially from the American Type Culture Collection (ATCC) and put into culture containing RPMI 1640 media (Gibco) supplemented with 1% Pen-Strep antibiotic (Gibco), 1% L-glutamine, and 20% fetal bovine serum (FBS, sterile-filtered). All cell lines were started at passage 10 and passaged every 3 days by centrifuging at 1000 rpm for 4 minutes.

[2] = system: HL-60 cells; assay: N-acetyl cysteine cytotoxicity assay
Experimental: For assays involving cytotoxicity of β-lapachone derivatives with and without antioxidant N—-acetyl cysteine, HL-60 cells were plated into 24 well plates at a concentration of 2.5×10^5 cells/mL in 450 μL. To each well was then added 25 μL of drug diluted in PBS to obtain the correct in-plate drug concentration, and 25 μL of PBS or a stock of N-acetyl cysteine at 12 mM in PBS. DMSO was maintained at an in-plate concentration of 0.1%. After 96 h incubation, toxicity was assessed by counting of live cells using the Trypan Blue exclusion method with a Countess II Automated Cell Counter (ThermoFisher Scientific) according to the manufacturer's instructions. Cell viability was determined by division of average live cell number of treated wells by average live cell number for control wells treated with 0.1% DMSO. […] Values recorded are the mean of three repeat wells, with error bars representing the standard error of the mean for each concentration tested.

[3] = system: ovine blood; assay: Methaemoglobin analysis in sheep's blood; conditions: after 1 h of incubation
Experimental: Defibrinated Oxoid™ sheep's blood (ThermoScientific) was diluted to a 5% v/v suspension in PBS pH 7.4. In a 96 well microtiter plate, 150 μL of blood suspension was added to 50 μL of serially diluted compound in PBS containing a 4× stock of each compound of interest. Serial dilution of compounds from DMSO stocks into PBS was performed to achieve an in-plate DMSO concentration of 0.1%. PBS buffer alone was used as a negative control. Three replicates were performed for each compound concentration analysed. The plate was incubated for the specified time at 37° C. The plate was then centrifuged at 3,500 rpm for 5 min. The supernatant was removed and cells lysed by resuspension in 100 μL of a solution of Triton-X-100 (1%) in PBS. Following this 80 μL of lysed cell contents were transferred to a second microtiter plate for UV measurement. To determine methaemoglobin increase, UV absorbance was measured immediately at 630 nm (MiniMax i3x Imager, Molecular Devices). Methaemoglobin increase was determined by (A630−A^0630)/(A^0630)×100, where A630 is the absorbance of the test well at 630 nm, and A^0630 is the absorbance of the negative control at 630 nm. Mean values and standard error of the mean of three independent replicates are plotted.

[4] = system: HeLa; assay: Toxicity with/without β-glucuronidase, HeLa; conditions: Homo sapiens, read-out: IC50 β-lapachone, 1
Experimental: (§1) Assays assessing cytotoxicity of β-lapachone and derivatives were performed by CellTiter-Blue assay (Promega) according to the manufacturer's instructions. Briefly, adherent cancer-cell lines were plated at 20,000 cells/well in 96 well plates or suspension cell lines were plated at a concentration of 2×10^5 cells/mL in 24 well plates. Compound stocks in media were made by dilution of DMSO stocks containing the compound of interest to obtain a final in-plate DMSO concentration of only 0.1%. Incubation was performed for 48 h. Following incubation, media was replaced with media containing CellTiter-Blue (Promega) in 1:10 dilution and the plates were incubated for 1.5-4 h. The fluorescence of the plates was recorded (excitation 555 nm, emission 585 nm, MiniMax i3x Reader, Molecular Devices).
Cell viability was calculated by division of the fluorescence intensity of treated wells by that of the calculated average fluorescence intensity of replicate negative control wells containing cells with 0.1% DMSO only. Values and reported error bars represent the mean and standard error of the mean of three triplicate repeats for each concentration tested. IC50 values were calculated using GraphPad Prism 8 software.
The potential of compound 37a, glucuronide-PHB-BL, as a prodrug was investigated. As discussed above, at physiological pH the compound has a relatively slow-release rate. Toxicity of Gluc-PHB-BL 37a was tested against a range of cell lines with and without added β-glucuronidase. Addition of the enzyme mimics conditions of the solid tumour environment.

[5] = system: SKBR3 (breast cancer cell line); assay: Viability assay (CellTiter-Blue), SKBR3; conditions: Homo sapiens, SK-BR-3
Experimental: as §1, with “MiniMax i3x” left out, “Devices). Cell viability was calculated by division of the fluorescence intensity of treated wells by that of the calculated average fluorescence intensity of replicate negative control wells containing cells with 0.1% DMSO only. Values and reported error bars represent the mean and standard error of the mean of three triplicate repeats for each concentration tested.” for “Devices).”

- IC50 [1]: 2040 nM
- lowest dose concentration at which methaemoglobin formation is detectable [3]: 10 µM
- IC50 [5]: 2800 nM
Structure (SMILES): CC1(C)CCC2=C(O1)c1ccccc1C(=O)C2=O [Compound 1, β-lapachone, reference compound]
- change of IC50 upon NAC addition ([2]; HL-60): more than doubled
- IC50 ([2]; Homo sapiens, HL-60, HL-60, without NAC): 470 ± 260 nM
- IC50 [4]: 4260 nM
